From US7238706B2, “4-oxo-1-(3-substituted phenyl-1,4-dihydro-1,8-naphthyridine-3-carboxamide phosphodiesterase-4 inhibitors” (Merck Frosst Canada, Ltd., priority 2002, dated 2007)

System: TNF-α
Assay: LPS-induced TNF-α assay in human whole blood
Assay type: cell-based
Conditions: LPS 1 μg/mL, 24 hours at 37° C., TNF-α by ELISA in plasma
Description: Whole blood provides a protein and cell-rich milieu appropriate for the study of biochemical efficacy of anti-inflammatory compounds such as PDE4-selective inhibitors. […] Upon stimulation with LPS, activated monocytes express and secrete TNF-α up to 8 hours and plasma levels remain stable for 24 hours. Published studies have shown that inhibition of TNF-α by increasing intracellular cAMP via PDE4 inhibition and/or enhanced adenylyl cyclase activity Occurs at the transcriptional level. […] As there is little LTB4 produced during a 24 hour LPS stimulation of whole blood, an additional LPS stimulation followed by fMLP challenge of human whole blood is necessary for LTB4 synthesis by activated neutrophils. Thus, by using the same blood sample, it is possible to evaluate the potency of a compound on two surrogate markers of PDE4 activity in the whole blood by the following procedure.
Fresh blood was collected in heparinized tubes by venipuncture from healthy human volunteers (male and female). These subjects had no apparent inflammatory conditions and had not taken any NSAIDs for at least 4 days prior to blood collection. 500 μL aliquots of blood were pre-incubated with either 2 μL of vehicle (DMSO) or 2 μL of test compound at varying concentrations for 15 minutes at 37° C. This was followed by the addition of either 10 μL vehicle (PBS) as blanks or 10 μL LPS (1 μg/mL final concentration, #L-2630 (Sigma Chemical Co., St. Louis, Mo.) from E. coli, serotype 0111:B4; diluted in 0.1% w/v BSA (in PBS)). After 24 hours of incubation at 37° C., another 10 μL of PBS (blank) or 10 μL of LPS (1 μg/mL final concentration) was added to blood and incubated for 30 minutes at 37° C. The blood was then challenged with either 10 μL of PBS (blank) or 10 μL of fMLP (1 μM final concentration, #F-3506 (Sigma); diluted in 1% w/v BSA (in PBS)) for 15 minutes at 37° C. The blood samples were centrifuged at 1500×g for 10 minutes at 4° C. to obtain plasma. A 50 μL aliquot of plasma was mixed with 200 μL methanol for protein precipitation and centrifuged as above. The supernatant was assayed for LTB4 using an enzyme immunoassay kit (#520111 from Cayman Chemical Co., Ann Arbor, Mich.) according to the manufacturer's procedure. TNF-α was assayed in diluted plasma (in PBS) using an ELISA kit (Cistron Biotechnology, Pine Brook, N.J.) according to manufacturer's procedure.

| SMILES | IC50 |
| --- | --- |
| O=C(NC1CC1)c1cn(-c2cccc(-c3ccc([C@@H]4C[C@H]4C(=O)O)cc3)c2)c2ncccc2c1=O (relative stereo) [Example 1, 2-(trans)-{3′-[3-[(Cyclopropylamino)carbonyl]-4-oxo-1,8-naphthyridin-1(4H)-yl]-1,1′-biphenyl-4-yl}cyclopropanecarboxylic acid] | 300 nM |
| O=C(NC1CC1)c1cn(-c2cccc(-c3ccc(C4CC4C(=O)O)c(F)c3)c2)c2ncccc2c1=O (single isomer, unassigned; (-)) [12-(−)-isomer, (−)-(trans)-2-{3′-[3-[(cyclopropylamino)carbonyl]-4-oxo-1,8-naphthyridin-1(4H)-yl]-3-fluoro-1,1′-biphenyl-4-yl}cyclopropanecarboxylic acid] | 500 nM |
| O=C(NC1CC1)c1cn(-c2cccc(-c3ccc([C@H]4C[C@H]4C(=O)O)cc3)c2)c2ncccc2c1=O (single isomer, unassigned; isomer 2) [8-(−)-isomer, 2-(cis)-{3′-[3-[(Cyclopropylamino)carbonyl]-4-oxo-1,8-naphthyridin-1(4H)-yl]-1,1′-biphenyl-4-yl}cyclopropanecarboxylic acid] | 160 nM |
| O=C(NCC1CC1)c1cn(-c2cccc(-c3ccc(C4CC4C(=O)O)cc3)c2)c2ncccc2c1=O (stereo not shown) [Example 26, 2-{3′-[3-{[(Cyclopropylmethyl)amino]carbonyl}-4-oxo-1,8-naphthyridin-1(4H)-yl]-1,1′-biphenyl-4-yl}cyclopropanecarboxylic acid] | 160 nM |
| O=C(NC1CC1)c1cn(-c2cccc(-c3ccc(CC4(C(=O)O)CCC4)cc3)c2)c2ncccc2c1=O [Example 30, 1-({3′-[3-[(cyclopropylamino)carbonyl]-4-oxo-1,8-naphthyridin-1(4H)-yl]biphenyl-4-yl}methyl)cyclobutanecarboxylic acid] | 1800 nM |

Further lines, results first:

| IC50 | SMILES |
| --- | --- |
| 160 nM | O=C(NCC(F)(F)F)c1cn(-c2cccc(-c3ccc([C@@H]4C[C@H]4C(=O)O)cc3)c2)c2ncccc2c1=O (single isomer, unassigned; (+)) [24-(+)-isomer, (+)-(trans)-2-{3′-[4-oxo-3-{[(2,2,2-trifluoroethyl)amino]carbonyl}-1,8-naphthyridin-1(4H)-yl]biphenyl-4-yl}cyclopropanecarboxylic acid] |
| 100 nM | O=C(NCC(F)(F)F)c1cn(-c2cccc(-c3ccc(C4CC4C(=O)O)c(F)c3)c2)c2ncccc2c1=O (single isomer, unassigned; (+)) [Example 29, (+)-(trans)-2-{3-fluoro-3′-[4-oxo-3-{[(2,2,2-trifluoroethyl)amino]carbonyl}-1,8-naphthyridin-1(4H)-yl]biphenyl-4-yl}cyclopropanecarboxylic acid] |
| 100 nM | O=C(NC1CC1)c1cn(-c2cccc(-c3cccc(C4CC4C(=O)O)c3)c2)c2ncccc2c1=O (stereo not shown) [Example 2, 2-{3′-[3-[(Cyclopropylamino)carbonyl]-4-oxo-1,8-naphthyridin-1(4H)-yl]-1,1′-biphenyl-3-yl}cyclopropanecarboxylic acid] |
| 75 nM | CC(C)(CC(=O)O)c1ccc(-c2cccc(-n3cc(C(=O)NC4CC4)c(=O)c4cccnc43)c2)cc1 [Example 5, 3-{3′-[3-[(Cyclopropylamino)carbonyl]-4-oxo-1,8-naphthyridin-1(4H)-yl]-1,1′-biphenyl-4-yl}-3-methylbutanoic acid] |
| 90 nM | O=C(NC1CC1)c1cn(-c2cccc(-c3ccc(C4CC4C(=O)O)c(Cl)c3)c2)c2ncccc2c1=O (stereo not shown) [Example 17, 2-{3-Chloro-3′-[3-[(cyclopropylamino)carbonyl]-4-oxo-1,8-naphthyridin-1(4H)-yl]1,1′-biphenyl-4-yl}cyclopropanecarboxylic acid] |
